Assay results from PubChem BioAssay (NCI).
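Cells were grown in 96-well plates and exposed to each compound for 48 hours at five concentrations; endpoints were interpolated linearly between bracketing concentrations, or set to the highest concentration if not reached. GI50 is the concentration that inhibits growth by half. Definition used: TGI = concentration required for complete inhibition of growth.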

Tests used:
Assay in all cases: DTP human tumour cell line panel, 48 h
[1] = tested on: SK-MEL-2 melanoma
[2] = tested on: UO-31 renal
[3] = tested on: RXF 393 renal
[4] = tested on: M14 melanoma
[5] = tested on: NCI/ADR-RES ovarian
[6] = tested on: NCI-H460 lung
[7] = tested on: HL-60(TB) leukemia
[8] = tested on: NCI-H522 lung
[9] = tested on: MDA-MB-435
[10] = tested on: A498 renal
[11] = tested on: SK-MEL-5 melanoma
[12] = tested on: ACHN renal
[13] = tested on: LOX IMVI melanoma
[14] = tested on: UACC-257 melanoma
[15] = tested on: OVCAR-4 ovarian
[16] = tested on: SF-268 CNS
[17] = tested on: OVCAR-8 ovarian
[18] = tested on: KM12 colon
[19] = tested on: HOP-62 NSCLC
[20] = tested on: HCT-15 colon
[21] = tested on: HT29 colon
[22] = tested on: PC-3 prostate
[23] = tested on: OVCAR-3 ovarian
[24] = tested on: SNB-19 CNS
[25] = tested on: HCT-116 colon
[26] = tested on: SR leukemia
[27] = tested on: CAKI-1 renal
[28] = tested on: T-47D breast
[29] = tested on: K-562 leukemia
[30] = tested on: BT-549 breast
[31] = tested on: SW-620 colon
[32] = tested on: CCRF-CEM leukemia
[33] = tested on: IGROV1 ovarian
[34] = tested on: DU-145 prostate
[35] = tested on: U251 CNS
[36] = tested on: MDA-MB-231 breast
[37] = tested on: SF-295 CNS
[38] = tested on: HOP-92 NSCLC
[39] = tested on: 786-0 renal
[40] = tested on: SNB-75 CNS
[41] = tested on: HS 578T breast
[42] = tested on: TK-10 renal
[43] = tested on: EKVX NSCLC
[44] = tested on: UACC-62 melanoma
[45] = tested on: A549 NSCLC
[46] = tested on: NCI-H226 lung
[47] = tested on: SF-539 CNS
[48] = tested on: HCC-2998 colon
[49] = tested on: COLO 205 colon
[50] = tested on: RPMI-8226 leukemia
[51] = tested on: NCI-H23 lung
[52] = tested on: MCF7 breast
[53] = tested on: SK-OV-3 ovarian
[54] = tested on: MOLT-4 leukemia
[55] = tested on: SN12C renal
[56] = tested on: MALME-3M melanoma
[57] = tested on: OVCAR-5 ovarian
[58] = tested on: SK-MEL-28 melanoma

Clc1ccc(CNc2ccc3nc(CCC4CCCCC4)[nH]c3c2)cc1
GI50 [1]: 2240 nM | TGI [1]: 5120 nM | GI50 [2]: 1490 nM | TGI [2]: 3290 nM | GI50 [3]: 1970 nM | TGI [3]: 4950 nM | GI50 [4]: 1930 nM | TGI [4]: 3950 nM | GI50 [5]: 2500 nM | TGI [5]: 7970 nM | GI50 [6]: 2150 nM | TGI [6]: 4820 nM | GI50 [7]: 2030 nM | TGI [7]: 4700 nM | GI50 [8]: 1710 nM | TGI [8]: 3950 nM | GI50 [9]: 1880 nM | TGI [9]: 4100 nM | GI50 [10]: 1360 nM | TGI [10]: 3400 nM | GI50 [11]: 1690 nM | TGI [11]: 3090 nM | GI50 [12]: 3030 nM | TGI [12]: 11200 nM | GI50 [13]: 1700 nM | TGI [13]: 3100 nM | GI50 [14]: 2300 nM | TGI [14]: 6300 nM | GI50 [15]: 3500 nM | TGI [15]: 90700 nM | GI50 [16]: 3130 nM | TGI [16]: 29900 nM | GI50 [17]: 3180 nM | TGI [17]: 19900 nM | GI50 [18]: 2490 nM | TGI [18]: 7000 nM | GI50 [19]: 2010 nM | TGI [19]: 4160 nM | GI50 [20]: 1830 nM | TGI [20]: 5640 nM | GI50 [21]: 1900 nM | TGI [21]: 4660 nM | GI50 [22]: 2660 nM | TGI [22]: 10900 nM | GI50 [23]: 3020 nM | TGI [23]: 12200 nM | GI50 [24]: 3120 nM | TGI [24]: 14800 nM | GI50 [25]: 1930 nM | TGI [25]: 4960 nM | GI50 [26]: 3150 nM | TGI [26]: 9920 nM | GI50 [27]: 2460 nM | TGI [27]: 6530 nM | GI50 [28]: 2240 nM | TGI [28]: 6550 nM | GI50 [29]: 2090 nM | TGI [29]: 5020 nM | GI50 [30]: 2140 nM | TGI [30]: 7240 nM | GI50 [31]: 1780 nM | TGI [31]: 3700 nM | GI50 [32]: 3270 nM | TGI [32]: > 100000 nM | GI50 [33]: 3000 nM | TGI [33]: 36900 nM | GI50 [34]: 3700 nM | TGI [34]: 23200 nM | GI50 [35]: 1730 nM | TGI [35]: 3470 nM | GI50 [36]: 1640 nM | TGI [36]: 3180 nM | GI50 [37]: 1960 nM | TGI [37]: 4070 nM | GI50 [38]: 1470 nM | TGI [38]: 3800 nM | GI50 [39]: 2030 nM | TGI [39]: 4400 nM | GI50 [40]: 1910 nM | TGI [40]: 5810 nM | GI50 [41]: 2120 nM | TGI [41]: 6370 nM | GI50 [42]: 2610 nM | TGI [42]: 7870 nM | GI50 [43]: 2200 nM | TGI [43]: 7060 nM | GI50 [44]: 1760 nM | TGI [44]: 3410 nM | GI50 [45]: 3140 nM | TGI [45]: > 100000 nM | GI50 [46]: 1760 nM | TGI [46]: 4160 nM | GI50 [47]: 2140 nM | TGI [47]: 4830 nM | GI50 [48]: 1810 nM | TGI [48]: 3410 nM | GI50 [49]: 1930 nM | TGI [49]: 3730 nM | GI50 [50]: 2090 nM | TGI [50]: 5020 nM | GI50 [51]: 2070 nM | TGI [51]: 4940 nM | GI50 [52]: 1800 nM | TGI [52]: 4630 nM | GI50 [53]: 2320 nM | TGI [53]: 5950 nM | GI50 [54]: 2520 nM | TGI [54]: 8230 nM | GI50 [55]: 2760 nM | TGI [55]: 11500 nM | GI50 [56]: 1770 nM | TGI [56]: 4080 nM | GI50 [57]: 2390 nM | TGI [57]: 6680 nM

Cn1cc(-c2nonc2-c2cn(C)c3ccc(F)cc23)c2ccccc21
GI50 [1]: 552 nM | TGI [1]: > 100000 nM | GI50 [2]: 438 nM | TGI [2]: > 100000 nM | GI50 [3]: 271 nM | TGI [3]: 873 nM | GI50 [4]: 342 nM | TGI [4]: > 100000 nM | GI50 [5]: 395 nM | TGI [5]: > 58300 nM | GI50 [6]: 390 nM | TGI [6]: > 100000 nM | GI50 [7]: 306 nM | TGI [7]: 2300 nM | GI50 [8]: 357 nM | TGI [8]: > 100000 nM | GI50 [9]: 199 nM | TGI [9]: 623 nM | GI50 [10]: 273 nM | TGI [10]: 976 nM | GI50 [11]: 502 nM | TGI [11]: > 100000 nM | GI50 [12]: 595 nM | TGI [12]: > 100000 nM | GI50 [13]: 564 nM | TGI [13]: > 100000 nM | TGI [15]: > 100000 nM | GI50 [16]: 1210 nM | TGI [16]: > 100000 nM | GI50 [17]: 630 nM | TGI [17]: > 100000 nM | GI50 [18]: 433 nM | TGI [18]: > 100000 nM | GI50 [19]: 590 nM | TGI [19]: > 100000 nM | GI50 [20]: 398 nM | TGI [20]: > 100000 nM | GI50 [21]: 346 nM | TGI [21]: > 100000 nM | GI50 [22]: 427 nM | TGI [22]: > 100000 nM | GI50 [23]: 340 nM | GI50 [24]: 555 nM | TGI [24]: > 100000 nM | GI50 [25]: 432 nM | TGI [25]: > 100000 nM | GI50 [26]: 269 nM | TGI [26]: > 100000 nM | GI50 [27]: 416 nM | TGI [27]: > 100000 nM | GI50 [28]: 809 nM | TGI [28]: > 100000 nM | GI50 [29]: 311 nM | TGI [29]: > 100000 nM | GI50 [30]: 923 nM | TGI [30]: > 100000 nM | GI50 [31]: 361 nM | TGI [31]: > 100000 nM | GI50 [32]: 319 nM | TGI [32]: > 100000 nM | GI50 [33]: 522 nM | TGI [33]: > 100000 nM | GI50 [34]: 530 nM | TGI [34]: > 100000 nM | GI50 [35]: 469 nM | TGI [35]: > 100000 nM | GI50 [36]: 869 nM | TGI [36]: > 100000 nM | GI50 [37]: 299 nM | GI50 [38]: 439 nM | TGI [38]: > 100000 nM | GI50 [39]: 614 nM | TGI [39]: > 100000 nM | GI50 [40]: 206 nM | TGI [40]: 702 nM | GI50 [41]: 299 nM | GI50 [42]: > 20400 nM | TGI [42]: > 100000 nM | GI50 [43]: 721 nM | TGI [43]: > 100000 nM | GI50 [44]: 469 nM | TGI [44]: > 100000 nM | GI50 [45]: 703 nM | TGI [45]: > 100000 nM | GI50 [58]: 3500 nM | TGI [58]: > 100000 nM | GI50 [46]: 2560 nM | TGI [46]: > 100000 nM | GI50 [47]: 291 nM | TGI [47]: 1580 nM | GI50 [48]: 958 nM | TGI [48]: > 100000 nM | GI50 [49]: 856 nM | TGI [49]: > 100000 nM | GI50 [50]: 463 nM | TGI [50]: > 100000 nM | GI50 [51]: 836 nM | TGI [51]: > 100000 nM | GI50 [52]: 366 nM | TGI [52]: > 100000 nM | GI50 [53]: 594 nM | TGI [53]: > 100000 nM | GI50 [54]: 685 nM | TGI [54]: > 100000 nM | GI50 [55]: 724 nM | TGI [55]: > 100000 nM | GI50 [56]: 540 nM | TGI [56]: > 100000 nM | GI50 [57]: 1050 nM | TGI [57]: > 100000 nM
